Where a SMILES comes first, the peptide text is derived from it. [ ]: non-standard residue; d: D form. Aib = CC(C)(N)C(=O)O
Tests used:
[1] = tested on: mice red blood cells; conditions: mouse erythrocytes in PBS, 1 h at 37°C; maximum concentration of 200 µM; n = 3
Experimental: Fresh mouse blood was collected in heparin sodium-containing centrifuge tubes. Erythrocytes were separated by centrifugation at 800×g for 10 min and washed three times with phosphate buffered saline (PBS). Obtained erythrocytes were resuspended in PBS to 8 % (v/v). 100 µL of the peptide solution of various concentrations and 100 µL of the erythrocyte suspension were added to the wells of a 96-well plate. PBS and 0.2 % TritonX-100 were used as agents for 0 % and 100 % hemolysis, respectively. Plates were incubated for 1 h at 37°C and centrifuged at 1,200×g for 15 min. A total of 100 µL of each supernatant was transferred to a 96-well plate, and the release of hemoglobin was determined using a microplate reader at 490 nm.

[2] = tested on: HeLa cells; conditions: 2 h incubation, n = 3; for LDH levels with decreasing pH: pH 7.4, 6.5, 6.0
Experimental: Membrane integrity was evaluated using the CytoTox-ONE assay. Cells were seeded at 1 ×10^4cells/well in a 96-well plate 24 h before treatment. After 2 h incubation with 100 µL serum-free medium, adjusted to pH 7.4, 6.5 or 6.0 and containing various concentrations of peptides, 40 µL of medium was transferred to a black fluorescence plate and incubated for 10 min with 40 µL of CytoTox-ONE reagent, followed by 20 µL of stop solution. Fluorescence was recorded with an excitation wavelength of 560 nm and emission wavelength of 590 nm. Untreated cells were defined as those where no leakage was observed while 100% leakage was defined as a total release of LDH due to cell lysis in 0.2% Triton X-100.

[3] = tested on: HeLa cells; conditions: 2 h incubation, MTT; for cytotoxicity: pH 6.0, 20 µM; for viability of cells: pH 7.4 and pH 6.5, different concentrations
Experimental: Cytotoxicity of all peptides against HeLa cells was evaluated using the MTT assay under varying pH conditions (pH 7.4, 6.5 and 6.0). Cells were seeded at 1 × 10^4 cells/well in 96-well plates, 24 h before treatment. After washing, cells were treated with serum-free medium, adjusted to pH 7.4, 6.5 or 6.0, and containing various concentrations of peptides. After 2 h incubation, 10 µL of MTT (5 mg/mL) was added to each well and incubated for another 4 h at 37°C. Then, the medium was removed and cells were dissolved by 150 µL dimethyl sulfoxide. Absorbance was determined using a microplate reader at 490 nm. Cell viability (%) was calculated using the following equation: Atest∕Acontrol × 100%, where Atest and Acontrol represent the absorbance of cells treated with different test solutions and blank culture media, respectively.

[4] = in vitro and in vivo conditions; ref Zhang et al., 2011; cited from earlier work
Excerpt: In recent years, pH-responsive CPPs have been developed for targeted delivery based on the pH gradient between the tumor tissues and physiological environment ([Lee, Gao & Bae, 2008]; [Shi et al., 2015]; [Jiang et al., 2012]; [Fei et al., 2014]). […] The acidic tumor microenvironment mandates the development of pH-responsive CPPs for improved s ...

[5] = design: method as in Zaro, Fei & Shen, 2012; Ouahab et al., 2014; conditions: ref Zaro, Fei & Shen, 2012; Ouahab et al., 2014; cited from earlier work
Excerpt: However, due to the imidazole on histidine with a pKa around 6.5, histidine could protonate into a net positive charge at pH values below 6.5 ([Zaro, Fei & Shen, 2012]; [Ouahab et al., 2014]), thereby activating the membrane penetrating activity of TH and allowing its entry into the cells. However, histidine becomes relatively insensitive to the tumor extracellular environment when the pH is in the 6.5–7.2 range, thereby reducing the pH-dependent penetrating activity of TH. In order to extend the applications of acid-activated CPPs, it is necessary to improve their pH-response. The ability of ...

[6] = tested on: HeLa cells; assay: Confocal laser scanning microscopy of FITC-labeled peptides; type: cell-based; conditions: CLSM, 5 µM FITC-labeled peptide, 1 h, 37°C; for pH-responsiveness of cellular uptake: pH 7.4, 6.5, 6.0
Experimental: To obtain a direct insight into the distribution of FITC-labeled peptides in cells, HeLa cells (6 × 10^4 cells/well) were plated in a glass-bottom culture dish for 24 h and then incubated with the FITC-labeled peptides using conditions and concentrations described above. After 1 h incubation at 37°C, the cells were washed with cold PBS three times and imaged using confocal laser scanning microscopy.

[7] = tested on: HeLa cells; assay: Quantitative cellular uptake assay (flow cytometry) of FITC-labeled peptides; type: cell-based; conditions: 1 h; for fluorescence intensity / cellular uptake relative to TH: all pH values (7.4, 6.5, 6.0); for fluorescence intensity / cellular uptake relative to TH / pH-responsive effect (change of fluorescence from pH 7.4 to pH 6.0) relative to TH: 5 µM FITC-labeled peptide
Experimental: The cells were harvested and centrifuged at 1,000 rpm for 5 min. Subsequently, the cell pellet was suspended and washed twice with PBS and resuspended in PBS. Finally, fluorescence intensity of 10,000 cells was analyzed with an FACS caliber flow cytometer using 488-nm laser excitation.

[8] = RP-HPLC retention time on C18 column (hydrophobicity); type: physicochemical; conditions: for RP-HPLC retention times: analytical RP-HPLC, C18, sunfire column 3.9 mm × 150 mm, Waters, used as measure of hydrophobicity
Experimental: All peptides shown in Table 1 were synthesized on a MBHA (0.43mmol/g) resin using the standard Fmoc-chemistry-based strategy. Fluorescein moiety (FITC) was attached to the N-terminusvia an aminohexanoic acid spacer by treating the resin-bound peptide (0.1 mmol) with FITC (0.1 mmol) and diisopropyl ethyl amine (0.5 mmol) in DMF for 12 h. All crude peptides were purified and analyzed by reversed-phase high performance liquid chromatography (RP-HPLC) on a C18 column, and then characterized by electrospray ionization mass spectrometry (ESI-MS).
Generally, cationic CPPs can bind on the anionic membrane surfaces via electrostatic interaction and promote cellular uptake ([Poon & Gariepy, 2007]). Thus, cationic functionalityis a critical factor for cell penetration. Histidine is especially pH-responsive ([Zaro, Fei & Shen, 2012]; [Ouahab et al., 2014]). Due to the presence of an imidazole ring, it has the ability to receive protons and protonate into a positive charge in an acidic tumor environment, whereas it remains predominantly uncharged under normal physiological conditions. The pH-responsiveness of histidine has been widely utilizedin the design of pH-responsive CPPs for targeted drug delivery. The protonation ability of histidine’simidazole moiety is the key for pH-dependent cellular uptake of histidine-rich peptides. […] In this regard, this study focused on the development of new histidine analogs that enhance the protonation of histidine by introducing alkylated groups with different electron-donating ability.

In the case of CC[C@H](C)[C@H](NC(=O)[C@H](Cc1c[nH]cn1)NC(=O)[C@H](Cc1c[nH]cn1)NC(=O)C(C)(C)NC(=O)[C@H](CC(C)C)NC(=O)[C@H](Cc1c[nH]cn1)NC(=O)[C@H](C)NC(=O)[C@H](CC(C)C)NC(=O)[C@H](Cc1c[nH]cn1)NC(=O)[C@H](Cc1c[nH]cn1)NC(=O)[C@H](CC(C)C)NC(=O)[C@H](CC(N)=O)NC(=O)[C@@H](NC(=O)[C@H](Cc1c[nH]cn1)NC(=O)CNC(=O)[C@H](CC(C)C)NC(=O)[C@H](CC(C)C)NC(=O)[C@H](Cc1ccc(O)cc1)NC(=O)CNC(=O)[C@H](C)N)[C@@H](C)CC)C(=O)N[C@@H](CC(C)C)C(N)=O [TH] (H-AGYLLGHINLHHLAHL[Aib]HHIL-NH2), the “hemolytic activity (cytotoxicity against red blood cells)” value [1] is reported as “little cytotoxicity against red blood cells”, the “LDH levels with decreasing pH” value [2] is reported as “rose as the pH value decreased” and the cytotoxicity [3] is reported as “increased”. The viability of cells [3] was “higher than 80%” and the “toxicity compared to TK” value [4] was “decreased”.
For N[C@@H](Cc1c[nH]cn1)C(=O)O [histidine], the “pKa of the imidazole on histidine” value [5] is given as “around 6.5”.
With “AGYLLGHBINLHBHBLAHBL(Aib)HBHBIL-NH2 [Butyl-TH, TH analog with all histidines replaced by L-his(Butyl)]” the “pH-responsiveness of cellular uptake” value [6] was “more pH-responsive at pH 6.5”, the “fluorescence intensity / cellular uptake relative to TH” value [7] was “increased remarkably” and the “fluorescence intensity, fold higher than TH” value ([7]; pH 6.5, 5 µM FITC-labeled peptide, serum-free medium) was “approximately 1.72 fold”. For the same molecule, the “LDH levels at pH 6.5 and pH 6.0 relative to pH 7.4” value [2] was “comparable to that at pH 7.4”, the “cytotoxic variation from pH 7.4 to pH 6.0” value [3] was “didn’t show obvious cytotoxic variation” and the RP-HPLC retention times [8] was 20.561 min.
For “AGYLLGHEINLHEHELAHEL(Aib)HEHEIL-NH2 [Ethyl-TH, TH analog with all histidines replaced by L-his(Ethyl)]”, the “pH-responsiveness of cellular uptake” value [6] was “better pH-dependent cellular uptake than TH at pH 6.0”, the “pH-responsive effect (change of fluorescence from pH 7.4 to pH 6.0) relative to TH” value [7] was “better than TH” and the “fluorescence intensity relative to TH” value ([7]; pH 7.4 and 6.5, 5 µM FITC-labeled peptide) was “lower fluorescence intensity than TH”. The “LDH release in comparison with TH and the other analogs” value ([2]; pH 6.0) was “most obvious LDH release”, the “LDH levels with decreasing pH” value [2] was “rose as the pH value decreased” and the cytotoxicity [3] was “increased”. For the same molecule, the viability of cells [3] was “higher than 80%” and the RP-HPLC retention times [8] was 18.623 min.
In the case of “AGYLLGHIINLHIHILAHIL(Aib)HIHIIL-NH2 [Isopropyl-TH, TH analog with all histidines replaced by L-his(Isopropyl)]”, the “fluorescence intensity at pH 6.5 relative to pH 7.4” value [6] is reported as “slightly lower than that at pH 7.4”, the “pH-responsiveness of cellular uptake” value [6] is reported as “no pH-responsive at pH 6.5” and the “pH-responsive effect (change of fluorescence from pH 7.4 to pH 6.0) relative to TH” value [7] is reported as “lower than that of TH”. The “LDH levels at pH 6.5 and pH 6.0 relative to pH 7.4” value [2] was “comparable to that at pH 7.4”, the “cytotoxic variation from pH 7.4 to pH 6.0” value [3] was “didn’t show obvious cytotoxic variation” and the RP-HPLC retention times [8] was 19.041 min.
For “AGYLLGHMINLHMHMLAHML(Aib)HMHMIL-NH2 [Methyl-TH, TH analog with all histidines replaced by L-his(Methyl)]”, the “cellular uptake relative to TH” value ([6]; pH 6.5 and pH 6.0) was “lower cellular uptake than TH”, the “pH-responsiveness of cellular uptake” value [6] was “poor pH-responsiveness” and the “fluorescence intensity / cellular uptake relative to TH” value [7] was “reduction of cellular uptake”. For the same molecule, the “LDH levels at pH 6.5 and pH 6.0 relative to pH 7.4” value [2] was “comparable to that at pH 7.4”, the “cytotoxicity at low pH” value ([3]; pH 6.5 and pH 6.0) was “didn’t show any significant cytotoxicity” and the RP-HPLC retention times [8] was 18.058 min. For the same molecule, the “hydrophobicity relative to TH” value ([8]; from retention time on the C18 reverse-phase HPLC column) was “less hydrophobic than TH”.

Reference: article PMC5465999, “Design of new acid-activated cell-penetrating peptides for tumor drug delivery” (PeerJ, 2017)
